The values that follow come from ChEMBL document CHEMBL2021881, “Ianthellamide A, a selective kynurenine-3-hydroxylase inhibitor from the Australian marine sponge Ianthella quadrangulata” (Bioorg Med Chem Lett, 2012).

Assay [1] has as its system Rattus norvegicus. Put plainly: Inhibition of kynurenine-3-hydroxylase in rat brain assessed as increase in Increase in extracellular kynurenic acid level at 200 mg/kg, ip coadministered with 100 mg/kg kynurenine by in-vivo microdialysis measured within 25 mins post dose relative to untreated control. The format is functional, organism-based.
The target of assay [2] is Kynurenine 3-monooxygenase (Rattus norvegicus) (UniProt O88867). Put plainly: (§1) Inhibition of kynurenine-3-hydroxylase in rat liver homogenates assessed as effect on production of 3-hydroxy kynurenine incubated for 1 hr by HPLC. The format is tissue-based.
Chain of Kynurenine 3-monooxygenase (Rattus norvegicus) (O88867 whole entry, looked up): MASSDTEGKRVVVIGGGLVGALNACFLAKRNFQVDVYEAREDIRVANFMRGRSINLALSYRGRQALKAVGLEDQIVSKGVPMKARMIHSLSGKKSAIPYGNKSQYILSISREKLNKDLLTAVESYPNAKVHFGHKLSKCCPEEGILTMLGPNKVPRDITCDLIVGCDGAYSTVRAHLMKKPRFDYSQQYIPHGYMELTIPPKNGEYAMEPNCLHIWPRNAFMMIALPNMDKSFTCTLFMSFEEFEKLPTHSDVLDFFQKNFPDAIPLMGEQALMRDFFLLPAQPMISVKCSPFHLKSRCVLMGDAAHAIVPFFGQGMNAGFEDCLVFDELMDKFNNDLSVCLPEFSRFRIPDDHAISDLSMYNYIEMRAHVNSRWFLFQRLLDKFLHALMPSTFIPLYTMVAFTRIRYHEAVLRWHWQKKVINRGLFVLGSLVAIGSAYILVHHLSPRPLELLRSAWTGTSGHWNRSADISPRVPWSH
In assay [3] the target is Kynurenine 3-monooxygenase (Rattus norvegicus, UniProt O88867). The description is as §1. Format: tissue-based.
Chain of Kynurenine 3-monooxygenase (O88867 whole entry): as the sequence (O88867 whole entry, looked up) above
For assay [4], the system named is Rattus norvegicus. Put plainly: Inhibition of kynurenine-3-hydroxylase in rat brain assessed as increase in Increase in extracellular kynurenic acid level at 200 mg/kg, ip coadministered with 100 mg/kg kynurenine by in-vivo microdialysis measured at 135 mins post dose relative to untreated control. The format is functional, organism-based.
For assay [5], the target named is T1, Kynureninase (Rattus norvegicus) (UniProt P70712).
T1 sequence (whole entry): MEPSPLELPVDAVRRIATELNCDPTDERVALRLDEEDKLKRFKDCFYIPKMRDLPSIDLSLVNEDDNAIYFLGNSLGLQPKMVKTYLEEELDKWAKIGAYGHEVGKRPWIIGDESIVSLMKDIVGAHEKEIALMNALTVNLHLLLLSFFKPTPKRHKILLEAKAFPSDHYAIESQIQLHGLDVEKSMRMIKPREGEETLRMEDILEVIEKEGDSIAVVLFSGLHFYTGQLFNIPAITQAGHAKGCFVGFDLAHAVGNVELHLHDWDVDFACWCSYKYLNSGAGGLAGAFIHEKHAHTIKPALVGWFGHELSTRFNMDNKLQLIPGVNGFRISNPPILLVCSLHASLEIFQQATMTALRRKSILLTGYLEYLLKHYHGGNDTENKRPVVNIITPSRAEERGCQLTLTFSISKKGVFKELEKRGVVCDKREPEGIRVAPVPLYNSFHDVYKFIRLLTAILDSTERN
Kind of assay: Inhibition of kynureninase in rat liver homogenates assessed as effect on production of anthranilic acid at >125 uM incubated for 30 mins by HPLC. Format: tissue-based.

The target in assay [6] is Kynurenine 3-monooxygenase (Rattus norvegicus) (UniProt O88867). Put plainly: Inhibition of kynurenine-3-hydroxylase in rat liver homogenates assessed as effect on production of 3-hydroxy kynurenine up to 125 uM incubated for 1 hr by HPLC. Format: tissue-based.
Assay [7] relates to Rattus norvegicus. Put plainly: Inhibition of kynurenine-3-hydroxylase in rat brain assessed as increase in Increase in extracellular kynurenic acid level at 200 mg/kg, ip coadministered with 100 mg/kg kynurenine by in-vivo microdialysis measured at 5 hrs post dose relative to untreated control. The format is functional, organism-based.
Assay [8] addresses T1, Kynureninase (Rattus norvegicus). Put plainly: Inhibition of kynureninase in rat liver homogenates assessed as effect on production of anthranilic acid up to 125 uM incubated for 30 mins by HPLC. The format is tissue-based.
The subject of assay [9] is Rattus norvegicus. Put plainly: Inhibition of kynurenine-3-hydroxylase in rat brain assessed as increase in Increase in extracellular kynurenic acid level at 200 mg/kg, ip coadministered with 100 mg/kg kynurenine by in-vivo microdialysis measured up to 335 mins post dose relative to untreated control. Format: functional.
Assay [10] has as its system Rattus norvegicus. Put plainly: Effect on extracellular kynurenic acid in rat brain dosed at 200 mg/kg, ip by in-vivo microdialysis measured for 6 hrs post dose (reference value: 1.55 +/- 0.05 pg/ml). Format: functional. Conditions: route intraperitoneal.

What is called IC50 is the point on the concentration scale where inhibition reaches its midpoint.

Structures are written as SMILES. Calls of active or inactive are those of the source. The rule behind the calls is not given here.

Take `CC(=O)NCCCO[C@@H](CN)c1cc(Br)c(OS(=O)(=O)O)c(Br)c1` [IANTHELLAMIDE A]: the outcome in the assay on Rattus norvegicus [1], in the assay with Rattus norvegicus [4] and in the assay on Rattus norvegicus [7] was Active. Also, the inhibition result in assay [2] is “Dose-dependent effect”. Moreover, in [3], the IC50 came to 1500 nM. Also, the inhibition result in assay [5] and in assay [6] was “Active” in each case. Moreover, in assay [8], the inhibition entry is “inactive”. Also, the “fold change (FC)” value in the assay on Rattus norvegicus [9] was determined as 20. In addition, the Activity in the assay with Rattus norvegicus [10] is 1.72 pg/µL.
